Experimental data published in ChEMBL document CHEMBL5543145, “Discovery of the First-in-Class G9a/GLP PROTAC Degrader” (J Med Chem, 2024).
Calls of active or inactive are those of the source. The rule behind the calls is not given here.

Tests used:
[1] = target: Protein arginine N-methyltransferase 7 (Homo sapiens) (UniProt Q9NVM4); assay: Inhibition of PRMT7 (unknown origin) at 10 uM relative to control
[2] = target: T1, von Hippel-Lindau disease tumor suppressor/Histone-lysine N-methyltransferase EHMT1 (Homo sapiens, UniProt Q9H9B1+P40337); assay: PROTAC activity at GLP/VHL in human 22Rv1 cells assessed as induction of GLP degradation incubated for 24 hrs by Western blot analysis; format: cell-based
[3] = target: Histone-lysine N-methyltransferase NSD3 (Homo sapiens) (UniProt Q9BZ95); assay: Inhibition of NSD3 (unknown origin) at 10 uM relative to control
[4] = target: Histone-lysine N-methyltransferase EZH1 (Homo sapiens) (UniProt Q92800); assay: Inhibition of EZH1 (unknown origin) at 10 uM relative to control
[5] = target: Histone-arginine methyltransferase CARM1 (Homo sapiens) (UniProt Q86X55); assay: Inhibition of PRMT4 (unknown origin) at 10 uM relative to control
[6] = organism: Homo sapiens; assay: Inhibition of SET6 (unknown origin) at 10 uM relative to control
[7] = target: T2, von Hippel-Lindau disease tumor suppressor/Histone-lysine N-methyltransferase EHMT2 (Homo sapiens, UniProt Q96KQ7+P40337); assay: PROTAC activity at G9a/VHL in human 22Rv1 cells assessed as induction of G9a degradation at 3 uM measured at 24 to 48 hrs by Western blot analysis; format: cell-based; details: time 24-48 hrs
Target sequence in this assay (P40337 whole entry partner): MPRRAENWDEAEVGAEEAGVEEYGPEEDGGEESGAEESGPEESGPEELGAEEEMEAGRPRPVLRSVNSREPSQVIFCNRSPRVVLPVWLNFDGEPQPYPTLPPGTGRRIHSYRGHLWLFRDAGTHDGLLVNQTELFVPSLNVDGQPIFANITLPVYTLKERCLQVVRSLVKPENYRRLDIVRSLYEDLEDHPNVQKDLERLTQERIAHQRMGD
Target sequence in this assay (Q96KQ7 2-1210 limits assumed): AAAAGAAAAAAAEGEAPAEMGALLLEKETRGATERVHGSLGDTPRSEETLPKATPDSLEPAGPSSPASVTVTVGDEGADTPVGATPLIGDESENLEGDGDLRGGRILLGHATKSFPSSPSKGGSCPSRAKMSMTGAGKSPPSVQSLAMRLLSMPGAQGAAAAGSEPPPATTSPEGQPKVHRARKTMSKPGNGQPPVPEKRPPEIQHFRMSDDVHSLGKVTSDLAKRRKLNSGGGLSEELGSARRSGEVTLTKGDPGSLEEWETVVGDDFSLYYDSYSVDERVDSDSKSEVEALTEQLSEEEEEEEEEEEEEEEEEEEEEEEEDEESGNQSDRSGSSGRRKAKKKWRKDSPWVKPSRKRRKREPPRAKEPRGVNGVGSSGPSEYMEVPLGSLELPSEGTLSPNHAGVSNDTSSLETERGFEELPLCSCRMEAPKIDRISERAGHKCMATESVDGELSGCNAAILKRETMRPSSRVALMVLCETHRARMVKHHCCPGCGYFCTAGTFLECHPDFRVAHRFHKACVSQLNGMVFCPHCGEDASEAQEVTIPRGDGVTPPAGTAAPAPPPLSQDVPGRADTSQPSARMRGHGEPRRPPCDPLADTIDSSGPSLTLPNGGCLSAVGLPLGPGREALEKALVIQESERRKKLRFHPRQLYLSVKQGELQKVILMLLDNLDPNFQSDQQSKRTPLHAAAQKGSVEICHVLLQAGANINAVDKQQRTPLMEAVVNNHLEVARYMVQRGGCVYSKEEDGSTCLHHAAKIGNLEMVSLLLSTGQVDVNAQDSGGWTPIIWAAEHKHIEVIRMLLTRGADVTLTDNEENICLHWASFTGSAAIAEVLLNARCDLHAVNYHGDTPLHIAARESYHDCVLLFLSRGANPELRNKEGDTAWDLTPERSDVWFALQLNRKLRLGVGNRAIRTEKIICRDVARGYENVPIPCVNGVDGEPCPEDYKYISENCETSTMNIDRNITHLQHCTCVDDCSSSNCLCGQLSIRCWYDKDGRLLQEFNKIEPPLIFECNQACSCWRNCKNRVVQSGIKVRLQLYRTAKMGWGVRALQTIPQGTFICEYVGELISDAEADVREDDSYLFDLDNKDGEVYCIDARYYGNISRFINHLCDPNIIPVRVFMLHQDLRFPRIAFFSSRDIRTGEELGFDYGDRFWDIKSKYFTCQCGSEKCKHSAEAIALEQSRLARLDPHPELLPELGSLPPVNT

[8] = target: T2, von Hippel-Lindau disease tumor suppressor/Histone-lysine N-methyltransferase EHMT2; assay: PROTAC activity at G9a/VHL in human 22Rv1 cells assessed as induction of G9a degradation at 3 uM measured at 4 hrs by Western blot analysis; format: cell-based
Target sequence in this assay (P40337 whole entry partner): as the sequence (P40337 whole entry partner) above
Target sequence in this assay (Q96KQ7 2-1210 limits assumed): as the sequence (Q96KQ7 2-1210 limits assumed) above

[9] = target: Protein arginine N-methyltransferase 6 (Homo sapiens) (UniProt Q96LA8); assay: Inhibition of PRMT6 (unknown origin) at 10 uM relative to control
[10] = target: T2, von Hippel-Lindau disease tumor suppressor/Histone-lysine N-methyltransferase EHMT2; assay: PROTAC activity at G9a/VHL in human 22Rv1 cells assessed as induction of G9a degradation incubated for 24 hrs by Western blot analysis; format: cell-based
[11] = target: Histone-lysine N-methyltransferase, H3 lysine-36 specific (Homo sapiens) (UniProt Q96L73); assay: Inhibition of NSD1 (unknown origin) at 10 uM relative to control
[12] = target: T1, von Hippel-Lindau disease tumor suppressor/Histone-lysine N-methyltransferase EHMT1; assay: PROTAC activity at GLP/VHL in human 22Rv1 cells assessed as induction of GLP degradation at 0.3 uM incubated for 24 hrs by Western blot analysis relative to control; format: cell-based
Target sequence in this assay (P40337 whole entry partner): as the sequence (P40337 whole entry partner) above
Target sequence in this assay (Q9H9B1 2-1298 limits assumed): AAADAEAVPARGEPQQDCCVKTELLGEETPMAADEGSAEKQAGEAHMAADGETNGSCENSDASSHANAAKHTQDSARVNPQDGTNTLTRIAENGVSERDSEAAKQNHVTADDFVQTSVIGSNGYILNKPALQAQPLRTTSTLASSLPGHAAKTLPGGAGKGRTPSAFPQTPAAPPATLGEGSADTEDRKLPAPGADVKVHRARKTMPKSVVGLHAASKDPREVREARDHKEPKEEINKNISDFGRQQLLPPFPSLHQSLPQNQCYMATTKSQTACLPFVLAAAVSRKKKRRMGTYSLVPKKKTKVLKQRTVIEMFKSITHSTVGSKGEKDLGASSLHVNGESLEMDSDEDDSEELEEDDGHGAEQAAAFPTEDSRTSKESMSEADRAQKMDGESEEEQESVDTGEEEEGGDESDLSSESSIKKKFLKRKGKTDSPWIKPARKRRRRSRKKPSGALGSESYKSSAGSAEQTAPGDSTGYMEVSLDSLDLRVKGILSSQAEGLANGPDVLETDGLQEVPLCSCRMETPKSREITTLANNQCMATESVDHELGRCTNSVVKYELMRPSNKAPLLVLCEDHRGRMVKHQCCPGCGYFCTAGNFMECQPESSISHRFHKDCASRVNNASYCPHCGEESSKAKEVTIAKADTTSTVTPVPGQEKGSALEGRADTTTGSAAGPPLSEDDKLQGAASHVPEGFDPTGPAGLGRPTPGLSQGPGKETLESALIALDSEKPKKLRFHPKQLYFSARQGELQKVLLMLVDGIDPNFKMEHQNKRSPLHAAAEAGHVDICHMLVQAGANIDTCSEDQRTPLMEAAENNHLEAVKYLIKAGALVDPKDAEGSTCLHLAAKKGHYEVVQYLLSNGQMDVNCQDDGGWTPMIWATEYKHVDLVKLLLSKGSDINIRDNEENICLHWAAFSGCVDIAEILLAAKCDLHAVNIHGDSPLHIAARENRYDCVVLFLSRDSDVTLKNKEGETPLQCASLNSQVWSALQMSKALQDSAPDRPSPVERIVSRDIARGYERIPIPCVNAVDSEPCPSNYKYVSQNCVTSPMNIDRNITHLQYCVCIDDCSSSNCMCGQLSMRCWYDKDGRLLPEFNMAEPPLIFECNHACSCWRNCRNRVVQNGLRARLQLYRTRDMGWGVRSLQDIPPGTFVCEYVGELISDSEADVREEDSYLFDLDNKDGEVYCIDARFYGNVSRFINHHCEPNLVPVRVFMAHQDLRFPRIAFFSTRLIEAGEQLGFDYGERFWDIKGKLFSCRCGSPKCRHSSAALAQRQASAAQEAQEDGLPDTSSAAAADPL

[13] = tested on: CWR22R; assay: Cytotoxicity against human 22Rv1 cells assessed as growth inhibition measured for 7 days; format: functional; details: 22Rv1, 168 h, time 7 day
[14] = Cmax in C57BL6 mouse plasma at 50 mg/kg, ip measured at 0.5 hrs by LC-MS/MS analysis; format: ADME, organism-based
[15] = tested on: CWR22R; assay: Effect on EZH2 level in human 22Rv1 cells at 3 uM incubated for 24 hrs by Western blot analysis; format: functional, cell-based
[16] = tested on: PNT2; assay: Cytotoxicity against human PNT2 cells assessed as growth inhibition measured for 5 days; format: toxicity, cell-based; details: pnt2, 120 h, time 5 day
[17] = target: T1, von Hippel-Lindau disease tumor suppressor/Histone-lysine N-methyltransferase EHMT1; assay: PROTAC activity at GLP/VHL in human NCI-H1299 cells assessed as induction of GLP degradation at 3 uM incubated for 24 hrs by Western blot analysis; format: cell-based
Target sequence in this assay (P40337 whole entry partner): as the sequence (P40337 whole entry partner) above
Target sequence in this assay (Q9H9B1 2-1298 limits assumed): as the sequence (Q9H9B1 2-1298 limits assumed) above

[18] = target: Histone-lysine N-methyltransferase SETD7 (Homo sapiens) (UniProt Q8WTS6); assay: Inhibition of SET7/9 (unknown origin) at 10 uM relative to control
[19] = target: T1, von Hippel-Lindau disease tumor suppressor/Histone-lysine N-methyltransferase EHMT1; assay: PROTAC activity at GLP/VHL in human K562 cells assessed as induction of GLP degradation at 3 uM incubated for 24 hrs by Western blot analysis; format: cell-based
Target sequence in this assay (P40337 whole entry partner): as the sequence (P40337 whole entry partner) above
Target sequence in this assay (Q9H9B1 2-1298 limits assumed): as the sequence (Q9H9B1 2-1298 limits assumed) above

[20] = tested on: CWR22R; assay: Inhibition of colony formation in human 22Rv1 cells upto 3 uM incubated for 8 days by ethyl violet staining based analysis; format: functional, cell-based; details: time 8.0 day
[21] = target: Protein arginine N-methyltransferase 8 (Homo sapiens) (UniProt Q9NR22); assay: Inhibition of PRMT8 (unknown origin) at 10 uM relative to control
[22] = target: T2, von Hippel-Lindau disease tumor suppressor/Histone-lysine N-methyltransferase EHMT2; assay: PROTAC activity at G9a/VHL in human NCI-H1299 cells assessed as induction of G9a degradation at 3 uM incubated for 24 hrs by Western blot analysis; format: cell-based
Target sequence in this assay (P40337 whole entry partner): as the sequence (P40337 whole entry partner) above
Target sequence in this assay (Q96KQ7 2-1210 limits assumed): as the sequence (Q96KQ7 2-1210 limits assumed) above

[23] = target: Protein arginine N-methyltransferase 1 (Homo sapiens) (UniProt Q99873); assay: Inhibition of PRMT1 (unknown origin) at 10 uM relative to control
[24] = target: T1, von Hippel-Lindau disease tumor suppressor/Histone-lysine N-methyltransferase EHMT1; assay: PROTAC activity at GLP/VHL in human 22Rv1 cells assessed as induction of GLP degradation at 1 uM pretreated with VHL-1 for 2 hrs followed by compound administration and measured after 24 hrs by Western blot analysis; format: cell-based
Target sequence in this assay (P40337 whole entry partner): as the sequence (P40337 whole entry partner) above
Target sequence in this assay (Q9H9B1 2-1298 limits assumed): as the sequence (Q9H9B1 2-1298 limits assumed) above

[25] = tested on: CWR22R; assay: Effect on SET7/9 level in human 22Rv1 cells at 3 uM incubated for 24 hrs by Western blot analysis; format: functional, cell-based
[26] = tested on: K562; assay: Cytotoxicity against human K562 cells assessed as growth inhibition incubated for 7 days; format: functional; details: K562, 168 h, time 7 day
[27] = target: Histone-lysine N-methyltransferase 2A (Homo sapiens) (UniProt Q03164); assay: Inhibition of MLL1 (unknown origin) at 10 uM relative to control
[28] = target: T1, von Hippel-Lindau disease tumor suppressor/Histone-lysine N-methyltransferase EHMT1; assay: PROTAC activity at GLP/VHL in human 22Rv1 cells assessed as induction of GLP degradation at 1 uM incubated for 24 hrs by Western blot analysis; format: cell-based
Target sequence in this assay (P40337 whole entry partner): as the sequence (P40337 whole entry partner) above
Target sequence in this assay (Q9H9B1 2-1298 limits assumed): as the sequence (Q9H9B1 2-1298 limits assumed) above

[29] = target: T2, von Hippel-Lindau disease tumor suppressor/Histone-lysine N-methyltransferase EHMT2; assay: PROTAC activity at G9a/VHL in human K562 cells assessed as induction of G9a degradation at 3 uM incubated for 24 hrs by Western blot analysis; format: cell-based
Target sequence in this assay (P40337 whole entry partner): as the sequence (P40337 whole entry partner) above
Target sequence in this assay (Q96KQ7 2-1210 limits assumed): as the sequence (Q96KQ7 2-1210 limits assumed) above

[30] = tested on: CWR22R; assay: Effect on PRMT7 level in human 22Rv1 cells at 3 uM incubated for 24 hrs by Western blot analysis; format: functional, cell-based
[31] = target: T2, von Hippel-Lindau disease tumor suppressor/Histone-lysine N-methyltransferase EHMT2; assay: PROTAC activity at G9a/VHL in human 22Rv1 cells assessed as induction of G9a degradation at 1 uM pretreated with VHL-1 for 2 hrs followed by compound administration and measured after 24 hrs by Western blot analysis; format: cell-based
Target sequence in this assay (P40337 whole entry partner): as the sequence (P40337 whole entry partner) above
Target sequence in this assay (Q96KQ7 2-1210 limits assumed): as the sequence (Q96KQ7 2-1210 limits assumed) above

[32] = target: T2, von Hippel-Lindau disease tumor suppressor/Histone-lysine N-methyltransferase EHMT2; assay: PROTAC activity at G9a/VHL in human 22Rv1 cells assessed as effect on G9a level at 3 uM incubated for 24 hrs by RT-qPCR analysis; format: cell-based
Target sequence in this assay (P40337 whole entry partner): as the sequence (P40337 whole entry partner) above
Target sequence in this assay (Q96KQ7 2-1210 limits assumed): as the sequence (Q96KQ7 2-1210 limits assumed) above

[33] = target: Histone-lysine N-methyltransferase SUV39H1 (Homo sapiens) (UniProt O43463); assay: Inhibition of SUV39H1 (unknown origin) at 10 uM relative to control
[34] = target: Protein arginine N-methyltransferase 3 (Homo sapiens) (UniProt O60678); assay: Inhibition of PRMT3 (unknown origin) at 10 uM relative to control
[35] = target: Histone-lysine N-methyltransferase SMYD3 (Homo sapiens) (UniProt Q9H7B4); assay: Inhibition of SMYD3 (unknown origin) at 10 uM relative to control
[36] = Cmax in C57BL6 mouse plasma at 50 mg/kg, ip measured at 8 hrs by LC-MS/MS analysis; format: ADME, organism-based
[37] = target: T1, von Hippel-Lindau disease tumor suppressor/Histone-lysine N-methyltransferase EHMT1; assay: PROTAC activity at GLP/VHL in human 22Rv1 cells assessed as effect on VHL level at 3 uM incubated for 24 hrs by RT-qPCR analysis; format: cell-based
Target sequence in this assay (P40337 whole entry partner): as the sequence (P40337 whole entry partner) above
Target sequence in this assay (Q9H9B1 2-1298 limits assumed): as the sequence (Q9H9B1 2-1298 limits assumed) above

[38] = target: T1, von Hippel-Lindau disease tumor suppressor/Histone-lysine N-methyltransferase EHMT1; assay: PROTAC activity at GLP/VHL in human 22Rv1 cells assessed as effect on GLP level upto 3 uM measured for 24 hrs by Western blot analysis; format: cell-based

Chain of Histone-lysine N-methyltransferase SMYD3 (Homo sapiens) (Q9H7B4 whole entry): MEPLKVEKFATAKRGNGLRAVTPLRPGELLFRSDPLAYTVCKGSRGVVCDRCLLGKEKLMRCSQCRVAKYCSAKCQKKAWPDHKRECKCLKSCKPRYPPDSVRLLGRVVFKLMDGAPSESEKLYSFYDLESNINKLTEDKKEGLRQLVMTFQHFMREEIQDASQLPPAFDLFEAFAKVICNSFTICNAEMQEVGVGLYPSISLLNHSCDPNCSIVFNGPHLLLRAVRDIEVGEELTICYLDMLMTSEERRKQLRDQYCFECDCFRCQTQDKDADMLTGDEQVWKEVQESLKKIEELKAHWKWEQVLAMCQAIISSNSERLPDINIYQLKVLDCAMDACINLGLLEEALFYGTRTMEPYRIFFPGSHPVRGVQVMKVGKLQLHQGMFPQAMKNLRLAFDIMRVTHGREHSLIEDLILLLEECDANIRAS
Chain of Protein arginine N-methyltransferase 1 (Homo sapiens) (Q99873 whole entry, looked up): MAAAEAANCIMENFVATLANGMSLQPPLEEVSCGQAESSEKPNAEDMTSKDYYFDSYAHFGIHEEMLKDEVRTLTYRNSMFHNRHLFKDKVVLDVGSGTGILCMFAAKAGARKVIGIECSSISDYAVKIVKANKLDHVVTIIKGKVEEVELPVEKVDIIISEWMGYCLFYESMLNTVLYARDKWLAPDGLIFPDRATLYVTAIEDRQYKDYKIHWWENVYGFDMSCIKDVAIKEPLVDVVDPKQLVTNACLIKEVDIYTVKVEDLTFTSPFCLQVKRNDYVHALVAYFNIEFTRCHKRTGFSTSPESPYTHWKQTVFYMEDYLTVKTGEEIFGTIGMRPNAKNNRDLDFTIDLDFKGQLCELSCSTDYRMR
Chain of Protein arginine N-methyltransferase 6 (Homo sapiens) (Q96LA8 whole entry, looked up): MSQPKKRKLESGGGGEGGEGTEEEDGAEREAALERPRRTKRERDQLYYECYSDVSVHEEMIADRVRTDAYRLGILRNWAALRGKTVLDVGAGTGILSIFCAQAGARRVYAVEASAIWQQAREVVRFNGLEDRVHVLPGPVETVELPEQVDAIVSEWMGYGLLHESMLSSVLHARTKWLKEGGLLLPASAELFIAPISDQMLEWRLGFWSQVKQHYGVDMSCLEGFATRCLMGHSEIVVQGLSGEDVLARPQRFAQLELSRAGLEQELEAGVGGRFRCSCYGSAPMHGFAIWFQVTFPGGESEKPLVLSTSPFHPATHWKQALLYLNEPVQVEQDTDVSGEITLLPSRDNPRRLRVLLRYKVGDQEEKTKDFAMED

## COc1cc2c(NC3CCN(CCCC(=O)NCCCCCCCCCCCC(=O)N[C@H](C(=O)N4C[C@H](O)C[C@H]4C(=O)NCc4ccc(-c5scnc5C)cc4)C(C)(C)C)CC3)nc(N3CCC(F)(F)CC3)nc2cc1OCCCN1CCCC1
[1]
  inhibition: > 50%
[2]
  DC50: 260 nM
[3]
  inhibition: > 50%
[4]
  inhibition: > 50%
[5]
  inhibition: > 50%
[6]
  inhibition: > 50%
[7]
  Activity: 100%
[8]
  Activity: Active
[9]
  inhibition: > 50%
[10]
  DC50: 274 nM
[11]
  inhibition: > 50%
[12]
  Emax: 49%
[13]
  GI50: 4.1 µM
[14]
  Cmax: 27 µM
[15]
  Activity: Active
[16]
  Activity: Non-Toxic
[17]
  Activity: Active
[18]
  inhibition: > 50%
[19]
  Activity: Active
[20]
  inhibition: Active
[21]
  inhibition: > 50%
[22]
  Activity: Active
[23]
  inhibition: > 50%
[24]
  Activity: Active
[25]
  Activity: Active
[26]
  GI50: 2000 nM
[27]
  inhibition: > 50%
[28]
  Activity: Active
[29]
  Activity: Active
[30]
  Activity: Active
[31]
  Activity: Active
[32]
  Activity: Active
[33]
  inhibition: > 50%
[34]
  inhibition: > 50%
[35]
  inhibition: > 50%
[36]
  Cmax: > 5 µM
[37]
  Activity: Active
[38]
  Activity: Active
